Measured values published in article PMC8286840, “Identifying SARS-CoV-2 antiviral compounds by screening for small molecule inhibitors of Nsp3 papain-like protease” (Biochemical Journal, 2021).
Counter-ions that a name gives are not always drawn. Like-named read-outs stand apart in the source and are kept apart here.

Columns and labels:
[1] = target: T1, SARS-CoV-2 PLpro (nsp3 1564–1878) (Severe acute respiratory syndrome coronavirus 2, UniProt P0DTD1); test: biochemical; design: FRET-quenched peptide (Pro3) cleavage by PLpro, 10 min pre-incubation, slope over 20 min, normalised to no-compound control; conditions: low concentration screen, read-out: % of control remaining
[2] = target: T1, SARS-CoV-2 PLpro (nsp3 1564–1878); test: biochemical; design: FRET-quenched peptide (Pro3) cleavage by PLpro, 10 min pre-incubation, slope over 20 min, normalised to no-compound control; conditions: high concentration screen, read-out: % of control remaining

`Cc1c(CC(=O)O)c2cccnc2n1Cc1ccc(S(C)(=O)=O)cc1C(F)(F)F` [Fevipiprant] showed a remaining activity at 1.25 µM ([1]; Well no.=7767) of 106% and a remaining activity at 3.75 µM ([2]; Well no.=7767) of 106%.

Molecule `COC(=O)/C=C/c1cccc(N(Cc2ccc(-c3ccc(N(C)C)cc3)cc2)C(=O)C2CCCCC2)c1` [Fexaramine] has a remaining activity at 1.25 µM ([1]; Well no.=5559) of 97.4% and a remaining activity at 3.75 µM ([2]; Well no.=5559) of 104%.

`CC(C)(C(=O)O)c1ccc(C(O)CCCN2CCC(C(O)(c3ccccc3)c3ccccc3)CC2)cc1` (centres unmarked) [Fexofenadine (hydrochloride)] showed a remaining activity at 1.25 µM ([1]; Well no.=6619) of 104% and a remaining activity at 3.75 µM ([2]; Well no.=6619) of 105%.

`CC(C)(C(=O)O)c1ccc(C(O)CCCN2CCC(C(O)(c3ccccc3)c3ccccc3)CC2)cc1` (centres unmarked) [Fexofenadine hydrochloride] showed a remaining activity at 1.25 µM ([1]; Well no.=425) of 93.1% and a remaining activity at 3.75 µM ([2]; Well no.=425) of 92.8%.

`COc1cccc2c1[C@@H]1CN(CCCCn3c(=O)[nH]c4c(sc5ncc(-c6ccccc6)nc54)c3=O)C[C@@H]1CO2` [Fiduxosin hydrochloride] showed a remaining activity at 1.25 µM ([1]; Well no.=611) of 97.2% and a remaining activity at 3.75 µM ([2]; Well no.=611) of 97.4%.

In the case of `COc1cc(C(=O)OC2CC3CCC(C2)N3C)ccc1O` (centres unmarked) [Fillalbin], the remaining activity at 1.25 µM ([1]; Well no.=3539) is reported as 92.8% and the remaining activity at 3.75 µM ([2]; Well no.=3539) is reported as 97.4%.

`CCCCc1nc(C)c(CC(=S)N(C)C)c(=O)n1Cc1ccc(-c2ccccc2-c2nnn[nH]2)cc1` [Fimasartan] was tested, and the remaining activity at 1.25 µM ([1]; Well no.=6183) was 107% and the remaining activity at 3.75 µM ([2]; Well no.=6183) was 103%.

Molecule `CC(C)(C)NC(=O)[C@H]1CC[C@H]2[C@@H]3CC[C@H]4NC(=O)C=C[C@]4(C)[C@H]3CC[C@]12C` [Finasteride] has a remaining activity at 1.25 µM ([1]; Well no.=2086) of 99% and a remaining activity at 3.75 µM ([2]; Well no.=2086) of 104%.

Molecule `CCOCc1cc(OC)c(-c2ccc(C[C@H](NC(=O)c3c(F)cccc3F)C(=O)O)cc2)c(OC)c1` [Firategrast] has a remaining activity at 1.25 µM ([1]; Well no.=7930) of 103% and a remaining activity at 3.75 µM ([2]; Well no.=7930) of 99%.

In the case of `O=c1c(O)c(-c2ccc(O)c(O)c2)oc2cc(O)ccc12` [Fisetin], the remaining activity at 1.25 µM ([1]; Well no.=3443) is reported as 91.4%, the remaining activity at 1.25 µM ([1]; Well no.=6254) is reported as 104% and the remaining activity at 3.75 µM ([2]; Well no.=3443) is reported as 95%. For the same molecule, the remaining activity at 3.75 µM ([2]; Well no.=6254) was 99.6%.

Molecule `O=C1C[C@@H](c2ccc(O)c(O)c2)Oc2c1ccc(O[C@@H]1O[C@H](CO)[C@@H](O)[C@H](O)[C@H]1O)c2O` [Flavanomarein] has a remaining activity at 1.25 µM ([1]; Well no.=3805) of 96.3% and a remaining activity at 3.75 µM ([2]; Well no.=3805) of 100%.

`COc1ccc(/C=C/C(=O)c2c(O)cc(OC)cc2OC)cc1` [Flavokawain A] gave a remaining activity at 1.25 µM ([1]; Well no.=3607) of 104% and a remaining activity at 3.75 µM ([2]; Well no.=3607) of 105%.

Molecule `COc1cc(O)c(C(=O)/C=C/c2ccccc2)c(OC)c1` [Flavokawain B] has a remaining activity at 1.25 µM ([1]; Well no.=3685) of 98.5% and a remaining activity at 3.75 µM ([2]; Well no.=3685) of 100%.

Work on `Cc1c(-c2ccccc2)oc2c(C(=O)OCCN3CCCCC3)cccc2c1=O` [Flavoxate (hydrochloride)] yielded a remaining activity at 1.25 µM ([1]; Well no.=6803) of 94.8% and a remaining activity at 3.75 µM ([2]; Well no.=6803) of 94.8%.

Molecule `Cc1c(-c2ccccc2)oc2c(C(=O)OCCN3CCCCC3)cccc2c1=O` [Flavoxate HCl] has a remaining activity at 1.25 µM ([1]; Well no.=5084) of 99% and a remaining activity at 3.75 µM ([2]; Well no.=5084) of 102%.

`O=C(NCC1CCCCN1)c1cc(OCC(F)(F)F)ccc1OCC(F)(F)F` (centres unmarked) [Flecainide acetate] gave a remaining activity at 1.25 µM ([1]; Well no.=709) of 98.5%, a remaining activity at 1.25 µM ([1]; Well no.=1649) of 101% and a remaining activity at 3.75 µM ([2]; Well no.=709) of 98.3%. The remaining activity at 3.75 µM ([2]; Well no.=1649) was 101%.

`CN1CCN(c2c(F)cc3c(=O)c(C(=O)O)cn(CCF)c3c2F)CC1` [Fleroxacin] was tested, and the remaining activity at 1.25 µM ([1]; Well no.=2120) was 92.9% and the remaining activity at 3.75 µM ([2]; Well no.=2120) was 96.3%.

In the case of `O=c1[nH]c(=O)n([C@H]2C[C@H](O)[C@@H](CO)O2)cc1F` [Floxuridine], the remaining activity at 1.25 µM ([1]; Well no.=2124) is reported as 98.1%, the remaining activity at 1.25 µM ([1]; Well no.=8010) is reported as 88% and the remaining activity at 3.75 µM ([2]; Well no.=2124) is reported as 102%. It also gave a remaining activity at 3.75 µM ([2]; Well no.=8010) of 86.4%.

In the case of `c1ccc(-c2cnc(Nc3ccc(OCCN4CCCC4)cc3)s2)cc1` [Flt-3 Inhibitor III], the remaining activity at 1.25 µM ([1]; Well no.=2421) is reported as 99.3% and the remaining activity at 3.75 µM ([2]; Well no.=2421) is reported as 98.8%.

`O=C(c1cc2cc(O)ccc2[nH]1)c1cc2cc(O)ccc2[nH]1` [Flt-3 Inhibitor II] was tested, and the remaining activity at 1.25 µM ([1]; Well no.=2409) was 109% and the remaining activity at 3.75 µM ([2]; Well no.=2409) was 110%.

Molecule `COc1ccc(C(=O)Nc2sc3c(c2C(N)=O)CCCC3)cc1OC` [Flt-3 Inhibitor] has a remaining activity at 1.25 µM ([1]; Well no.=2407) of 105% and a remaining activity at 3.75 µM ([2]; Well no.=2407) of 105%.

Work on `COC(=O)Nc1nc2cc(C(=O)c3ccc(F)cc3)ccc2[nH]1` [Flubendazole] yielded a remaining activity at 1.25 µM ([1]; Well no.=2128) of 101% and a remaining activity at 3.75 µM ([2]; Well no.=2128) of 103%.

`OC(Cn1cncn1)(Cn1cncn1)c1ccc(F)cc1F` [Fluconazole] gave a remaining activity at 1.25 µM ([1]; Well no.=2132) of 99.9% and a remaining activity at 3.75 µM ([2]; Well no.=2132) of 100%.

Molecule `Nc1nc(=O)[nH]cc1F` [Flucytosine (Ancobon)] has a remaining activity at 1.25 µM ([1]; Well no.=5335) of 94.7% and a remaining activity at 3.75 µM ([2]; Well no.=5335) of 101%.

`Nc1nc(F)nc2c1ncn2[C@@H]1O[C@H](CO)[C@@H](O)[C@@H]1O` [Fludarabine (Fludara)] was tested, and the remaining activity at 1.25 µM ([1]; Well no.=5249) was 98.3% and the remaining activity at 3.75 µM ([2]; Well no.=5249) was 99.9%.

Molecule `Nc1nc(F)nc2c1ncn2[C@@H]1O[C@H](COP(=O)(O)O)[C@@H](O)[C@@H]1O` [Fludarabine (phosphate)] has a remaining activity at 1.25 µM ([1]; Well no.=8046) of 95.8% and a remaining activity at 3.75 µM ([2]; Well no.=8046) of 98%.

With `Nc1nc(F)nc2c1ncn2[C@@H]1O[C@H](CO)[C@@H](O)[C@@H]1O` [Fludarabine] the remaining activity at 1.25 µM ([1]; Well no.=7962) was 89.2% and the remaining activity at 3.75 µM ([2]; Well no.=7962) was 88.2%.

With `CC(=O)OCC(=O)[C@@]1(O)CC[C@H]2[C@@H]3CCC4=CC(=O)CC[C@]4(C)[C@@]3(F)[C@@H](O)C[C@@]21C` [Fludrocortisone acetate] the remaining activity at 1.25 µM ([1]; Well no.=5827) was 103% and the remaining activity at 3.75 µM ([2]; Well no.=5827) was 104%.

For `O=C(O)c1ccccc1Nc1cccc(C(F)(F)F)c1` [Flufenamic acid], the remaining activity at 1.25 µM ([1]; Well no.=1639) was 104% and the remaining activity at 3.75 µM ([2]; Well no.=1639) was 105%.

`CCOC(=O)c1ncn2c1CN(C)C(=O)c1cc(F)ccc1-2` [Flumazenil] gave a remaining activity at 1.25 µM ([1]; Well no.=517) of 104%, a remaining activity at 1.25 µM ([1]; Well no.=1575) of 103% and a remaining activity at 3.75 µM ([2]; Well no.=517) of 106%. For the same molecule, the remaining activity at 3.75 µM ([2]; Well no.=1575) was 102%.

`CC1CCc2cc(F)cc3c(=O)c(C(=O)O)cn1c23` (centres unmarked) [Flumequine] gave a remaining activity at 1.25 µM ([1]; Well no.=5032) of 96.8% and a remaining activity at 3.75 µM ([2]; Well no.=5032) of 97.6%.

Molecule `Cc1c(Nc2ncccc2C(=O)O)cccc1C(F)(F)F` [Flunixin meglumin] has a remaining activity at 1.25 µM ([1]; Well no.=5094) of 103% and a remaining activity at 3.75 µM ([2]; Well no.=5094) of 108%.

`CC1(C)O[C@@H]2C[C@H]3[C@@H]4C[C@H](F)C5=CC(=O)C=C[C@]5(C)[C@@]4(F)[C@@H](O)C[C@]3(C)[C@]2(C(=O)CO)O1` [Fluocinolone (Acetonide)] showed a remaining activity at 1.25 µM ([1]; Well no.=6667) of 108% and a remaining activity at 3.75 µM ([2]; Well no.=6667) of 111%.
